Our source for the Kd values is US20230312542A1, “HYDROXYPYRROLIDINE DERIVATIVE AND MEDICINAL APPLICATION THEREOF” (MITSUBISHI TANABE PHARMA CORPORATION, priority 2020, published 2023).

For this assay, the target named is VHL (co-expressed with Elongin B and Elongin C) (Homo sapiens (Human), UniProt P40337). The assay is described as follows: Measurement of intermolecular interactions using surface plasmon resonance (Biacore T200), Kd value for VHL. Conditions: SPR, immobilized VHL, 25° C.; read-out: Kd. The assay is classed as binding. An excerpt: As the device, Biacore T200 (manufactured by GE Healthcare) was used. VHL was obtained by co-expressing Elongin B and Elongin C with a Twin-Strep-tag added to the N-terminus. As the sensor chip, Sensor chip CM5 (manufactured by GE Healthcare) was used. First, Strep-Tactin XT (manufactured by GE Healthcare) was immobilized on the sensor chip by amine coupling. Thereafter, VHL was immobilized using the affinity of Strep-Tactin XT and Twin-Strep-tag, and VHL was further immobilized on the sensor chip by amine coupling.
Sequence of VHL (co-expressed with Elongin B and Elongin C) (P40337 whole entry, looked up): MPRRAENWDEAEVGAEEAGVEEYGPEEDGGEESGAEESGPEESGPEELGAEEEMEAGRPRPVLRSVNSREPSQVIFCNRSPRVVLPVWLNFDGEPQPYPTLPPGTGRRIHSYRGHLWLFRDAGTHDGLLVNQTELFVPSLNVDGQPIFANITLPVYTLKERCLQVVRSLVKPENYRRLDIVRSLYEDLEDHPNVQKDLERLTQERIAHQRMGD
Sequence of VHL (co-expressed with Elongin B and Elongin C) (Q15370 whole entry partner, looked up): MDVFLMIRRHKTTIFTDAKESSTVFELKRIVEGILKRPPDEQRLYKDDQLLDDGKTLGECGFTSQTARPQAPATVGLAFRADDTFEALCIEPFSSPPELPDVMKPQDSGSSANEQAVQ
Sequence of VHL (co-expressed with Elongin B and Elongin C) (Q15369 whole entry partner, looked up): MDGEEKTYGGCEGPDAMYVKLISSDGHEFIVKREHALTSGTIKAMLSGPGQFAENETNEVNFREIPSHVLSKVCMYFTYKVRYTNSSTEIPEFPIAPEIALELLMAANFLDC
As the running buffer, a mixed solution of 20 mM HEPES pH 7.5, 150 mM NaCl, 1 mM TCEP, 0.005% Tween 20, and 2% DMSO was used. […] The Contact time and the Dissociation time were determined according to the properties of the compounds. For many compounds, 60 seconds and 120 seconds were respectively used.
Consider `COc1cc(C(C(=O)N2C[C@H](O)C[C@H]2c2nc(C(=O)N3CC(c4ccccc4)C3)c[nH]2)C(C)C)on1` (stereo partly drawn) [Example 108, 1-[(2S,4R)-4-hydroxy-2-[4-(3-phenylazetidine-1-carbonyl)-1H-imidazol-2-yl]pyrrolidin-1-yl]-2-(3-methoxyisoxazol-5-yl)-3-methylbutan-1-one], for which the Kd is less than 1 µM.
The value for `COc1cc(C(C(=O)N2C[C@H](O)C[C@H]2c2nc(C(=O)N(C)CC3CCN(Cc4ccccc4F)CC3)c[nH]2)C(C)C)on1` (stereo partly drawn) [Example 155, N-[[1-[(2-fluorophenyl)methyl]-4-piperidyl]methyl]-2-[(2S,4R)-4-hydroxy-1-[2-(3-methoxyisoxazol-5-yl)-3-methylbutanoyl]pyrrolidin-2-yl]-N-methyl-1H-imidazole-4-carboxamide] was 1 to 10 µM; that for `COc1cc(C(C(=O)N2C[C@H](O)C[C@H]2c2nccn2Cc2cccc(Oc3ccccc3)c2)C(C)C)on1` (stereo partly drawn) [Example 65, 1-[(2S,4R)-4-hydroxy-2-[1-[(3-phenoxyphenyl)methyl]imidazol-2-yl]pyrrolidin-1-yl]-2-(3-methoxy-1,2-oxazol-5-yl)-3-methylbutan-1-one] was 10 to 50 µM.
Under `COc1cc(C(C(=O)N2C[C@H](O)C[C@H]2c2ncc[nH]2)C(C)C)on1` (stereo partly drawn) [Example 112, 1-[(2S,4R)-4-hydroxy-2-(1H-imidazol-2-yl)pyrrolidin-1-yl]-2-(3-methoxyisoxazol-5-yl)-3-methylbutan-1-one] stands 1 to 10 µM; under `CC(=O)N[C@H](C(=O)N1C[C@H](O)C[C@H]1c1nc(C(=O)N(C)Cc2ccc(F)cc2)c[nH]1)C(C)(C)C` [Example 19, 2-[(2S,4R)-1-[(2S)-2-acetamido-3,3-dimethylbutanoyl]-4-hydroxypyrrolidin-2-yl]-N-[(4-fluorophenyl)methyl]-N-methyl-1H-imidazole-4-carboxamide], 1 to 10 µM.
The value for `CC(=O)N[C@H](C(=O)N1C[C@H](O)C[C@H]1c1nc(C(=O)N(C)Cc2ccccc2Cl)c[nH]1)C(C)(C)C` [Example 14, 2-[(2S,4R)-1-[(2S)-2-acetamido-3,3-dimethylbutanoyl]-4-hydroxypyrrolidin-2-yl]-N-[(2-chlorophenyl)methyl]-N-methyl-1H-imidazole-4-carboxamide] was 1 to 10 µM; that for `CC(=O)N[C@H](C(=O)N1C[C@H](O)C[C@H]1c1ncc(Cc2ccc(-c3scnc3C)cc2)[nH]1)C(C)(C)C` [Example 93, N-[(1S)-1-[(2S,4R)-4-hydroxy-2-[5-[[4-(4-methyl-1,3-thiazol-5-yl)phenyl]methyl]-1H-imidazol-2-yl]pyrrolidin-1-yl]-3,3-dimethyl-1-oxobutan-2-yl]acetamide] was 1 to 10 µM.
`COc1cc(C(C(=O)N2C[C@H](O)C[C@H]2c2nc(C)cs2)C(C)C)on1` (stereo partly drawn) [Example 147, 1-[(2S,4R)-4-hydroxy-2-(4-methylthiazol-2-yl)pyrrolidin-1-yl]-2-(3-methoxyisoxazol-5-yl)-3-methylbutan-1-one]: the Kd lay within 10 to 50 µM.
In the case of `COc1cc(C(C(=O)N2C[C@H](O)C[C@H]2c2nc(C(=O)N3CCC(c4ccc(C)cn4)CC3)c[nH]2)C(C)C)on1` (stereo partly drawn) [Example 144, 1-[(2S,4R)-4-hydroxy-2-[4-[4-(5-methyl-2-pyridyl)piperidine-1-carbonyl]-1H-imidazol-2-yl]pyrrolidin-1-yl]-2-(3-methoxyisoxazol-5-yl)-3-methylbutan-1-one], the Kd fell in the range of 1 to 10 µM.
Under `COc1ccc(CN(C)C(=O)c2c[nH]c([C@@H]3C[C@@H](O)CN3C(=O)[C@@H](NC(C)=O)C(C)(C)C)n2)cc1` [Example 25, 2-[(2S,4R)-1-[(2S)-2-acetamido-3,3-dimethylbutanoyl]-4-hydroxypyrrolidin-2-yl]-N-[(4-methoxyphenyl)methyl]-N-methyl-1H-imidazole-4-carboxamide] stands 1 to 10 µM.
The value for `COc1cc(C(C(=O)N2C[C@H](O)C[C@H]2c2nc(C(=O)N3CCCC(C(=O)Nc4ccccc4)C3)c[nH]2)C(C)C)on1` (stereo partly drawn) [Example 148, 1-[2-[(2S,4R)-4-hydroxy-1-[2-(3-methoxyisoxazol-5-yl)-3-methylbutanoyl]pyrrolidin-2-yl]-1H-imidazole-4-carbonyl]-N-phenylpiperidine-3-carboxamide] was 1 to 10 µM.
Under `COc1cccc(-c2cnc([C@@H]3C[C@@H](O)CN3C(=O)C(c3cc(OC)no3)C(C)C)[nH]2)c1` (stereo partly drawn) [Example 61, 1-[(2S,4R)-4-hydroxy-2-[5-(3-methoxyphenyl)-1H-imidazol-2-yl]pyrrolidin-1-yl]-2-(3-methoxy-1,2-oxazol-5-yl)-3-methylbutan-1-one] stands 1 to 10 µM; under `COc1cc(C(C(=O)N2C[C@H](O)C[C@H]2c2nccn2CC(=O)Nc2ccccc2)C(C)C)on1` (stereo partly drawn) [Example 96, 2-[2-[(2S,4R)-4-hydroxy-1-[2-(3-methoxy-1,2-oxazol-5-yl)-3-methylbutanoyl]pyrrolidin-2-yl]imidazol-1-yl]-N-phenylacetamide], 10 to 50 µM; under `CC(=O)N[C@H](C(=O)N1C[C@H](O)C[C@H]1c1nc(C(=O)N(C)Cc2cccc(F)c2)c[nH]1)C(C)(C)C` [Example 18, 2-[(2S,4R)-1-[(2S)-2-acetamido-3,3-dimethylbutanoyl]-4-hydroxypyrrolidin-2-yl]-N-[(3-fluorophenyl)methyl]-N-methyl-1H-imidazole-4-carboxamide], 1 to 10 µM.
As to `CNC(=O)c1ccc(-c2cnc([C@@H]3C[C@@H](O)CN3C(=O)C(c3cc(OC)no3)C(C)C)[nH]2)cc1` (stereo partly drawn) [Example 97, 4-[2-[(2S,4R)-4-hydroxy-1-[2-(3-methoxy-1,2-oxazol-5-yl)-3-methylbutanoyl]pyrrolidin-2-yl]-1H-imidazol-5-yl]-N-methylbenzamide], the Kd was 1 to 10 µM.
Under `COc1cccc(-c2nc([C@@H]3C[C@@H](O)CN3C(=O)C(c3cc(OC)no3)C(C)C)[nH]c2-c2cccc(OC)c2)c1` (stereo partly drawn) [Example 76, 1-[(2S,4R)-2-[4,5-bis(3-methoxyphenyl)-1H-imidazol-2-yl]-4-hydroxypyrrolidin-1-yl]-2-(3-methoxy-1,2-oxazol-5-yl)-3-methylbutan-1-one] stands 1 to 10 µM.
The value for `CCCc1nc(C(C(=O)N2C[C@H](O)C[C@H]2c2ncc[nH]2)C(C)C)no1` (stereo partly drawn) [Example 161, 1-[(2S,4R)-4-hydroxy-2-(1H-imidazol-2-yl)pyrrolidin-1-yl]-3-methyl-2-(5-propyl-1,2,4-oxadiazol-3-yl)butan-1-one] was 10 to 50 µM.
The value for `CC(=O)N[C@H](C(=O)N1C[C@H](O)C[C@H]1c1nc(C(=O)N(C)Cc2cccc(-c3scnc3C)c2)c[nH]1)C(C)(C)C` [Example 29, 2-[(2S,4R)-1-[(2S)-2-acetamido-3,3-dimethylbutanoyl]-4-hydroxypyrrolidin-2-yl]-N-methyl-N-[[3-(4-methyl-1,3-thiazol-5-yl)phenyl]methyl]-1H-imidazole-4-carboxamide] was 1 to 10 µM.
On to `CC(=O)N[C@H](C(=O)N1C[C@H](O)C[C@H]1c1ncc(Cc2cccc(Br)c2)[nH]1)C(C)(C)C` [Example 90, N-[(2S)-1-[(2S,4R)-2-[5-[(3-bromophenyl)methyl]-1H-imidazol-2-yl]-4-hydroxypyrrolidin-1-yl]-3,3-dimethyl-1-oxobutan-2-yl]acetamide], for which the Kd is 1 to 10 µM.
Under `COc1cc(C(C(=O)N2C[C@H](O)C[C@H]2c2nc(C(=O)N(C)Cc3ccc(-c4scnc4C)cc3)c[nH]2)C(C)C)on1` (stereo partly drawn) [Example 54, 2-[(2S,4R)-4-hydroxy-1-[2-(3-methoxy-1,2-oxazol-5-yl)-3-methylbutanoyl]pyrrolidin-2-yl]-N-methyl-N-[[4-(4-methyl-1,3-thiazol-5-yl)phenyl]methyl]-1H-imidazole-4-carboxamide] stands less than 1 µM.
Under `CC(=O)N[C@H](C(=O)N1C[C@H](O)C[C@H]1c1nc(C(=O)N(C)Cc2ccc(C(F)(F)F)cc2)c[nH]1)C(C)(C)C` [Example 22, 2-[(2S,4R)-1-[(2S)-2-acetamido-3,3-dimethylbutanoyl]-4-hydroxypyrrolidin-2-yl]-N-methyl-N-[[4-(trifluoromethyl)phenyl]methyl]-1H-imidazole-4-carboxamide] stands 1 to 10 µM; under `CC(=O)N[C@H](C(=O)N1C[C@H](O)C[C@H]1c1nc(C(=O)N(C)Cc2ccccn2)c[nH]1)C(C)(C)C` [Example 48, 2-[(2S,4R)-1-[(2S)-2-acetamido-3,3-dimethylbutanoyl]-4-hydroxypyrrolidin-2-yl]-N-methyl-N-(pyridin-2-ylmethyl)-1H-imidazole-4-carboxamide], 1 to 10 µM; under `CC(=O)N[C@H](C(=O)N1C[C@H](O)C[C@H]1c1nc(C(=O)N(C)Cc2ccccc2F)c[nH]1)C(C)(C)C` [Example 17, 2-[(2S,4R)-1-[(2S)-2-acetamido-3,3-dimethylbutanoyl]-4-hydroxypyrrolidin-2-yl]-N-[(2-fluorophenyl)methyl]-N-methyl-1H-imidazole-4-carboxamide], 1 to 10 µM.
As to `CC(=O)N[C@H](C(=O)N1C[C@H](O)C[C@H]1c1nc(C(=O)N(C)Cc2ccc(-c3scnc3C)cc2)c[nH]1)C(C)(C)C` [Example 35, 2-[(2S,4R)-1-[(2S)-2-acetamido-3,3-dimethylbutanoyl]-4-hydroxypyrrolidin-2-yl]-N-methyl-N-[[4-(4-methyl-1,3-thiazol-5-yl)phenyl]methyl]-1H-imidazole-4-carboxamide], the dissociation constant Kd lay in the range of 1 to 10 µM.
The value for `CC(=O)N[C@H](C(=O)N1C[C@H](O)C[C@H]1c1nc(C(=O)N(C)Cc2ccccc2C(F)(F)F)c[nH]1)C(C)(C)C` [Example 20, 2-[(2S,4R)-1-[(2S)-2-acetamido-3,3-dimethylbutanoyl]-4-hydroxypyrrolidin-2-yl]-N-methyl-N-[[2-(trifluoromethyl)phenyl]methyl]-1H-imidazole-4-carboxamide] was 1 to 10 µM.
